{"source": "patent US20250134889A1", "about": "“TARGETING IRE1 KINASE AND FMRP FOR PROPHYLAXIS, MANAGEMENT AND TREATMENT OF ATHEROSCLEROSIS” (CEDARS-SINAI MEDICAL CENTER, priority 2022, published 2025)", "key": {"peritoneal macrophages": {"test_system": "peritoneal macrophages", "assay": "In vivo foam cell formation assay", "design": "species or system mouse", "settings": "Apoe-/- mice, WD 12 weeks, 30 mg/kg/day in the last 4 weeks, ORO staining", "method": "(§1) FIGS. 2A-2M depict that FMRP deficiency enhances RCT while reducing foam cell formation in vivo. (Data are mean±SEM. Unpaired t-test with Welch's correction. * P≤0.05, ** P≤0.01, *** P≤0.001.) • 2A. Fmr1^+/+ and Fmr1^−/− mice were injected with AAV_PCSK9 and fed with 16 weeks of WD. Residential PM were stained with Oil Red O (ORO) and imaged (n=7; Scale bar=50 μm). • 2B. Apoe-/mice were fed with WD (12 weeks) and injected with vehicle (DMSO) or AMG-18 (30 mg/kg/day) in the last 4 weeks of WD. Residential PM were stained with ORO and imaged (n=5; Scale bar=50 μm). • 2C-2E. […] Macrophages were pre-loaded with fluorescently labeled cholesterol (16 hours) followed by incubation in efflux medium including APOA1 (25 μg/ml) or HDL (50 μg/ml) as acceptors for 6 hours. % Efflux was calculated as cholesterol signal in medium/cholesterol signal in medium and cell: Cholesterol efflux in (2F) Fmr1+/+ and Fmr1^−/− BMDM (n=4) and in (2G) BMDM that were pre-treated either with DMSO or AMG-18 (5 μM; 1 hour) (n=4). • 2H-2K. […] Protein lysates from macrophages used in FIG. 2C were analyzed by western blotting using specific antibodies for FMRP and β-Actin. • 2M. […]"}, "BMDM": {"test_system": "BMDM", "assay": "Cholesterol efflux assay", "assay_type": "cell-based, mouse", "settings": "AMG-18 5 μM 1 hour pre-treatment; APOA1 25 μg/ml or HDL 50 μg/ml acceptors, 6 hours", "method": "as §1"}, "macrophages": {"test_system": "macrophages", "assay": "Cholesterol uptake in macrophages (fluorescently labeled cholesterol)", "assay_type": "cell-based, mouse", "settings": "AMG-18 10 μM 1 hour pre-treatment, labeled cholesterol 4 hours"}}, "data": [{"molecule": "Cc1ccc2c(NS(=O)(=O)c3ccccc3Cl)cccc2c1Oc1ncccc1-c1ccnc(N[C@H]2CCCNC2)n1", "note": "[AMG-18]", "values": [{"measurement": "foam cell formation in the peritoneum", "setting": "peritoneal macrophages", "result": "reduced"}, {"measurement": "cholesterol efflux", "setting": "BMDM", "result": "enhanced"}, {"measurement": "cholesterol uptake", "setting": "macrophages", "result": "neither FMRP knock down nor IRE1 kinase inhibition altered"}]}]}
